Results taken from ChEMBL document CHEMBL4414546, “Identification of Narciclasine as an in Vitro Anti-Inflammatory Component of Cyrtanthus contractus by Correlation-Based Metabolomics” (2019).
Calls of active or inactive are those of the source. No cut-off for these calls is given here.

What was measured:
HUVEC [1] = experiment: Antiinflammatory activity in HUVEC assessed as reduction in TNF-alpha-induced E-selectin cell surface expression at 7.2 nM preincubated for 30 mins followed by TNF-alpha addition and measured after 4 hrs by ELISA; type: functional, cell-based; settings: Homo sapiens
HUVEC [2] = experiment: Antiinflammatory activity in HUVEC assessed as reduction in TNF-alpha-induced E-selectin expression at 7.2 nM preincubated for 30 mins followed by TNF-alpha stimulation and measured after 30 mins by immunoblotting analysis; type: functional, cell-based; settings: Homo sapiens
HUVEC [3] = experiment: Antiinflammatory activity in HUVEC assessed as reduction in TNF-alpha-induced ICAM1 cell surface expression at 7.2 nM preincubated for 30 mins followed by TNF-alpha stimulation and measured after 24 hrs by flow cytometry; type: functional, cell-based; settings: Homo sapiens
HUVEC [4] = experiment: Effect on TNF-alpha-induced NFkappaB nuclear translocation in HUVEC at 7.2 nM preincubated for 30 mins followed by TNF-alpha stimulation and measured after 30 mins by fluorescence microscopic analysis; type: cell-based; settings: Homo sapiens
HUVEC [5] = experiment: Antiinflammatory activity in TNF-alpha-induced HUVEC assessed as fold change in IkappaBalpha expression at 7.2 nM preincubated for 30 mins followed by addition and measured after 30 mins by immunoblotting analysis (reference value: 0.50); type: functional, Homo sapiens
HUVEC [6] = experiment: Antiinflammatory activity in TNF-alpha-induced HUVEC assessed as fold change in COX2 expression at 7.2 nM preincubated for 30 mins followed by addition and measured after 30 mins by immunoblotting analysis (reference value: 0.50); type: functional, Homo sapiens

## O=C1N[C@@H]2C(=C[C@H](O)[C@@H](O)[C@H]2O)c2cc3c(c(O)c21)OCO3 [NARCICLASINE]
HUVEC [1]
  inhibition: Active
HUVEC [2]
  inhibition: Active
HUVEC [3]
  inhibition: Active
HUVEC [4]
  Activity: inactive
HUVEC [5]
  fold change (FC): 0.31
HUVEC [6]
  fold change (FC): 0.8
